# Tested on: hippocampal neurons
# Assay: Neurite outgrowth assay in cultured E18 rat hippocampal neurons (48 h, βIII-tubulin staining, Cellomics ArrayScan)
# Format: cell-based
# Details: Hippocampal neuron; for activity at 0.015625 µg/mL: 15.625 ng/mL compound; for activity at 0.015625 µg/mL / activity at 0.03125 µg/mL / activity at 0.0625 µg/mL / activity at 0.125 µg/mL / activity at 0.25 µg/mL / activity at 0.5 µg/mL: 48 hours, read-out: neurite growth length (% NTL); for activity at 0.03125 µg/mL: 31.25 ng/mL compound; for activity at 0.0625 µg/mL: 62.5 ng/mL compound; for activity at 0.125 µg/mL: 125 ng/mL compound; for activity at 0.25 µg/mL: 250 ng/mL compound; for activity at 0.5 µg/mL: 500 ng/mL compound; for EC200 / EC300: 48 h, estimated using linear interpolation; for EC200: 200% effective dose, read-out: ED200%; for EC300: 300% effective dose, read-out: ED300%
# Protocol: Pre-coating culture plates: On the day before the experiment, 96-well plates were pre-coated by plating 50 μL of poly-D-lysine solution (PDL, 0.5 mg/mL) in each well. The next morning, the plates were washed four or five times with HBSS or PBS (150 μL/rinse), then left in buffer until cell plating
# Preparing the cells: A timed pregnant rat carrying E18 embryos was euthanized using an IACUC approved method. In a laminar flow hood, the embryos were removed and placed in a petri dish containing Hank's Balanced Salt Solution (HBSS) with 20 mM HEPES, pH 7.3. Pup brains were dissected (see Meberg et al., Methods cell Biol 71:111-127 (2003)) and hippocampi were collected in 15 mL a conical tube containing Hibernate E with SM1 (2% v/v).
# Dissociation media was prepared by combining 4.5 mL of Hibernate E (without SM1) with 0.5 mL of trypsin and 100 μl of DNAse solution. The medium over the hippocampi was carefully removed and replaced with dissociation solution, then incubated at 37° C. for 15-20 minutes, occasionally swirling the tube.
# Using flame polished cotton plugged Pasteur pipettes, the dissociation media was removed, and then 5 mL of Hibernate E containing SM1 were added. The tube was swirled to thoroughly wash the tissue. The tissue was allowed to settle to the bottom of the tube, and the rinse solution was carefully removed. This step was repeated 5 times to dilute out trypsin and DNAse and remove any debris from lysed cells.
# The final rinse media was removed from the tube and 1 pipette-full (1-2 mL) of Hibernate E with SM1 was added. Using the flame-polished Pasteur pipette (pre-wetted with rinse media), the tube was triturated until all cells had dissociated and no visible chunks of tissue remained. Fewer than ten triturations were typically performed. The volume was adjusted to 8-12 mL using Hibernate E containing SM1, the well was mixed and cell concentration was determined.
# Plating: The cells were diluted in culture media (NbActiv4 Cell-culture media) to a final concentration of 10,000 cells/mL. The HBSS was aspirated from PDL coated plates, and 150 μL of cell solution was loaded in the middle 48 wells at 1500 cells per well. Water was loaded in the outer wells to decrease evaporation from edge wells. Cells were allowed to adhere for 2 hours in tissue culture incubator prior to treatment.
# Treatment: Compounds were diluted to various concentrations to provide 6 dose response concentrations of 500 ng/mL, 250 ng/mL, 125 ng/mL, 62.5 ng/mL, 31.25 ng/mL, and 15.625 ng/mL. The plates were cultured for 48 hours, exposed to the compound at the various dose response concentrations.
# Fixing the cultures: The culture medium was removed from the plates and immediately replaced with 100-200 μL of warm (37° C.) 4% paraformaldehyde (“PFA”) solution in phosphate-buffered saline (“PBS”). The cells were fixed for 15-20 minutes at room temperature, and then rinsed with PBS (200 μl/well×3).
# Staining and imaging: The PBS was removed and replaced with 100 μL of blocking/permeabilization buffer (PBS, 0.2% fish gelatin, 0.03% Triton X-100, 0.02% NaN3), then incubated overnight at 4° C. To this was added 100 μL of primary antibody solution (mouse anti-Beta III tubulin in blocking buffer) and incubate overnight at 4° C. The wells were rinsed with PBS (200 μl×3), which was then removed and replaced with 100 μL of secondary antibody solution (Goat anti-mouse Alexa 488, 10 μg/ml Hoechst 33342, 0.2% fish gelatin, 0.02% azide, in PBS). The plate was shaken gently on a rotating shaker for 2 hours, then rinsed with PBS (200 μl×5).
# The plate was imaged using a Cellomics ArrayScan VTI in 2 different channels for nuclear staining (Hoechst) and cell body/neurite staining (βIII-tubulin). Typically, nine fields per well were imaged with a 5× objective and automatically traced by the Neuronal Profiling Bioapplication. To get reproducible results, at least 200-300 valid neurons were measured per condition. […]
Structure (SMILES),activity at 0.015625 µg/mL [%],activity at 0.03125 µg/mL [%],activity at 0.0625 µg/mL [%],activity at 0.125 µg/mL [%],activity at 0.25 µg/mL [%],activity at 0.5 µg/mL [%],EC200 [µM],EC300 [µM]
"CCC(C)C1=N[C@@H](CCCCN2C[C@@H](C)N(CC3CCC(C)CC3)C2=S)CN1 (stereo partly drawn) [Compound A7, (4R)-1-(4-((4S)-2-(sec-butyl)-4,5-dihydro-1H-imidazol-4-yl)butyl)-4-methyl-3-((4-methylcyclohexyl)methyl)imidazolidine-2-thione]",97,135,150,166,267,294,,
"CC(C)CCCN1C(=S)N(CCCC[C@H]2CNC(CCCc3ccccc3)=N2)C[C@H]1c1ccccc1 [Compound A21, (R)-3-(4-methylpentyl)-4-phenyl-1-(4-((S)-2-(3-phenylpropyl)-4,5-dihydro-1H-imidazol-4-yl)butyl)imidazolidine-2-thione]",114,170,172,259,254,225,,
"C[C@@H]1CN(CCCC[C@H]2CNC(CCCc3ccccc3)=N2)C(=S)N1CCC1CCCCC1 [Compound A6, (R)-3-(2-cyclohexylethyl)-4-methyl-1-(4-((S)-2-(3-phenylpropyl)-4,5-dihydro-1H-imidazol-4-yl)butyl)imidazolidine-2-thione]",101,122,122,210,247,243,,
"CC(C)C[C@@H]1CN(CCCC[C@H]2CNC(CCCc3ccccc3)=N2)C(=S)N1CC1CCC(C)CC1 (stereo partly drawn) [Compound A18, (R)-4-isobutyl-3-((4-methylcyclohexyl)methyl)-1-(4-((S)-2-(3-phenylpropyl)-4,5-dihydro-1H-imidazol-4-yl)butyl)imidazolidine-2-thione]",145,197,247,257,240,224,0.025,0.461
"CC1CCC(CN2C(=S)N(CCCC[C@H]3CNC(C4CCCC4)=N3)C[C@H]2c2ccccc2)CC1 (stereo partly drawn) [Compound A26, (R)-1-(4-((S)-2-cyclopentyl-4,5-dihydro-1H-imidazol-4-yl)butyl)-3-((4-methylcyclohexyl)methyl)-4-phenylimidazolidine-2-thione]",251,272,306,286,271,230,0.002,> 0.52
"CC(C)C[C@@H]1CN(CCCC[C@H]2CNC(C3CCCC3)=N2)C(=S)N1CC1CCC(C)CC1 (stereo partly drawn) [Compound A17, (R)-1-(4-((S)-2-cyclopentyl-4,5-dihydro-1H-imidazol-4-yl)butyl)-4-isobutyl-3-((4-methylcyclohexyl)methyl)imidazolidine-2-thione]",170,255,254,312,238,263,0.004,0.025
"CC(C)CCCN1C(=S)N(CCCC[C@H]2CNC(C3CCCC3)=N2)C[C@H]1C [Compound A2, (R)-1-(4-((S)-2-cyclopentyl-4,5-dihydro-1H-imidazol-4-yl)butyl)-4-methyl-3-(4-methylpentyl)imidazolidine-2-thione]",114,138,176,214,265,324,,
"CC(C)C[C@@H]1CN(CCCC[C@H]2CNC(CCCc3ccccc3)=N2)C(=S)N1CCC1CCCCC1 [Compound A15, (R)-3-(2-cyclohexylethyl)-4-isobutyl-1-(4-((S)-2-(3-phenylpropyl)-4,5-dihydro-1H-imidazol-4-yl)butyl)imidazolidine-2-thione]",114,135,199,201,267,247,,
"CC1CCC(CN2C(=S)N(CCCC[C@H]3CNC(CCCc4ccccc4)=N3)C[C@H]2c2ccccc2)CC1 (stereo partly drawn) [Compound A27, (R)-3-((4-methylcyclohexyl)methyl)-4-phenyl-1-(4-((S)-2-(3-phenylpropyl)-4,5-dihydro-1H-imidazol-4-yl)butyl)imidazolidine-2-thione]",185,174,238,269,245,221,0.017,> 0.471
"CCC(C)C1=N[C@@H](CCCCN2C[C@@H](C)N(CCCC(C)C)C2=S)CN1 (mixture of isomers) [Compound A1, (4R)-1-(4-((4S)-2-(sec-butyl)-4,5-dihydro-1H-imidazol-4-yl)butyl)-4-methyl-3-(4-methylpentyl)imidazolidine-2-thione]",92,116,155,169,209,323,,
"CC(C)CCCN1C(=S)N(CCCC[C@H]2CNC(CCCc3ccccc3)=N2)C[C@H]1CC(C)C [Compound A12, (R)-4-isobutyl-3-(4-methylpentyl)-1-(4-((S)-2-(3-phenylpropyl)-4,5-dihydro-1H-imidazol-4-yl)butyl)imidazolidine-2-thione]",127,145,194,237,266,240,,
"CC1CCC(CN2C(=S)N(CCCC[C@H]3CNC(C4CCCC4)=N3)C[C@H]2C)CC1 (stereo partly drawn) [Compound A8, (R)-1-(4-((S)-2-cyclopentyl-4,5-dihydro-1H-imidazol-4-yl)butyl)-4-methyl-3-((4-methylcyclohexyl)methyl)imidazolidine-2-thione]",95,128,168,231,257,322,0.13,0.282
"S=C1N(CCCC[C@H]2CNC(CCCc3ccccc3)=N2)C[C@@H](c2ccccc2)N1CCC1CCCCC1 [Compound A24, (R)-3-(2-cyclohexylethyl)-4-phenyl-1-(4-((S)-2-(3-phenylpropyl)-4,5-dihydro-1H-imidazol-4-yl)butyl)imidazolidine-2-thione]",144,209,252,254,222,184,,
